Source: US9493466B2, “Treatment of cancer with TOR kinase inhibitors” (Signal Pharmaceuticals, LLC, priority 2011, dated 2016)
Several values for one entry are separate records, joined by “and”; a condition that tells them apart may be missing. Identical values can stand only once.

Assays:
Assay in all cases: Cell viability assay for NSCLC lines
Assay type in all cases: cell-based, human
[1] = system: Calu-1; conditions: Calu-1, 3 days
Procedure: (§1) Cell Viability Assay for NSCLC Lines. Cell viability was assessed using the Cell Titer-Glo Luminescent Cell Viability from Promega. The assay is a homogenous method of determining the number of viable cells in culture based on quantitation of the adenosine triphosphate (ATP) present, an indicator of metabolically active cells. The homogenous assay procedure involves adding the single reagent (CellTiter-Glo Reagent) directly to cells cultured in serum-supplemented medium. Cells were plated into a 96-well flat bottom plate (Costar Catalog Number 33595) at densities that were previously optimized for each cell line. The cells were incubated overnight in 5% CO2 at 37° C. The following day, compound dilutions were prepared and all concentrations were assayed in triplicate. The cells were incubated with Compound 1 (0.03 μM, 0.1 μM, 0.3 μM, 1 μM, 3 μM, 10 μM and 30 μM for NSCLC cells) in 5% CO2 at 37° C. for 3 days. After a 3-day incubation period, 100 μL of CellTiter-Glo reagent was added to each well for 2 minutes with shaking and further incubated for 10 minutes (no shaking) at room temperature to stabilize the signal. The luminescence was measured on the VICTOR X2 multilabel plate reader. The percent growth inhibition was calculated using the DMSO control in the same plate (no compound) response as 100% cell growth. The average values from triplicates were plotted to obtain IC50 values using software XLfit from IDBS. The formula used for determining IC50 in XLfit was model number 205, which utilizes a 4 Parameter Logistic Model or Sigmoidal Dose-Response Model to calculate the IC50 values. All IC50 values are reported as an average from either two independent experiments or a single experiment.

[2] = system: Calu-3; conditions: Calu-3, 3 days
Procedure: as §1

[3] = system: Calu-6; conditions: Calu-6, 3 days
Procedure: as §1

[4] = system: HOP62; conditions: HOP62, 3 days
Procedure: as §1

[5] = system: HOP92; conditions: HOP92, 3 days
Procedure: as §1

[6] = system: NCI-H1299; conditions: NCI-H1299, 3 days
Procedure: as §1

[7] = system: NCI-H1395; conditions: NCI-H1395, 3 days
Procedure: as §1

[8] = system: NCI-H1437; conditions: NCI-H1437, 3 days
Procedure: as §1

[9] = system: NCI-H1563; conditions: NCI-H1563, 3 days
Procedure: as §1

[10] = system: NCI-H1650; conditions: NCI-H1650, 3 days
Procedure: as §1

[11] = system: NCI-H1693; conditions: NCI-H1693, 3 days
Procedure: as §1

[12] = system: NCI-H1703; conditions: NCI-H1703, 3 days
Procedure: as §1

[13] = system: NCI-H1734; conditions: NCI-H1734, 3 days
Procedure: as §1

[14] = system: NCI-H1792; conditions: NCI-H1792, 3 days
Procedure: as §1

[15] = system: NCI-H1838; conditions: NCI-H1838, 3 days
Procedure: as §1

[16] = system: NCI-H1944; conditions: NCI-H1944, 3 days
Procedure: as §1

[17] = system: NCI-H1975; conditions: NCI-H1975, 3 days
Procedure: as §1

[18] = system: NCI-H1993; conditions: NCI-H1993, 3 days
Procedure: as §1

[19] = system: NCI-H2009; conditions: NCI-H2009, 3 days
Procedure: as §1

[20] = system: NCI-H2110; conditions: NCI-H2110, 3 days
Procedure: as §1

[21] = system: NCI-H2122; conditions: NCI-H2122, 3 days
Procedure: as §1

[22] = system: NCI-H226; conditions: NCI-H226, 3 days
Procedure: as §1

[23] = system: NCI-H2291; conditions: NCI-H2291, 3 days
Procedure: as §1

[24] = system: NCI-H23; conditions: NCI-H23, 3 days
Procedure: as §1

[25] = system: NCI-H28; conditions: NCI-H28, 3 days
Procedure: as §1

[26] = system: NCI-H358; conditions: NCI-H358, 3 days
Procedure: as §1

[27] = system: NCI-H441; conditions: NCI-H441, 3 days
Procedure: as §1

[28] = system: NCI-H460; conditions: NCI-H460, 3 days
Procedure: as §1

[29] = system: NCI-H520; conditions: NCI-H520, 3 days
Procedure: as §1

[30] = system: NCI-H549; conditions: NCI-H549, 3 days
Procedure: as §1

[31] = system: NCI-H596; conditions: NCI-H596, 3 days
Procedure: as §1

[32] = system: NCI-H650; conditions: NCI-H650, 3 days
Procedure: as §1

[33] = system: NCI-H727; conditions: NCI-H727, 3 days
Procedure: as §1

[34] = system: SK-LU-1; conditions: SK-LU-1, 3 days
Procedure: as §1

[35] = system: SW1573; conditions: SW1573, 3 days
Procedure: as §1

## CO[C@H]1CC[C@H](N2C(=O)CNc3ncc(-c4ccc(C(C)(C)O)nc4)nc32)CC1 [Compound 1, 7-(6-(2-hydroxypropan-2-yl)pyridin-3-yl)-1-((1r,4r)-4-methoxycyclohexyl)-3,4-dihydropyrazino-[2,3-b]pyrazin-2(1H)-one]
[1]
  IC50: 4.74 µM
[2]
  IC50: 0.302 µM
[3]
  IC50: 4.52 µM
[4]
  IC50: 2.01 µM
[5]
  IC50: > 30 µM
[6]
  IC50: 1.23 µM
[7]
  IC50: 0.6 µM
[8]
  IC50: 0.975 µM
[9]
  IC50: > 30 µM
[10]
  IC50: > 30 µM
[11]
  IC50: 1.58 µM
[12]
  IC50: 0.92 µM
[13]
  IC50: 1.55 µM
[14]
  IC50: 0.54 µM
[15]
  IC50: > 30 µM
[16]
  IC50: 0.55 µM
[17]
  IC50: 0.96 µM
[18]
  IC50: 0.5 µM
[19]
  IC50: 26 µM
[20]
  IC50: 0.456 µM
[21]
  IC50: 0.9 µM
[22]
  IC50: 1.75 µM
[23]
  IC50: > 30 µM
[24]
  IC50: 2.21 µM
[25]
  IC50: > 30 µM
[26]
  IC50: 1.42 µM
[27]
  IC50: > 30 µM
[28]
  IC50: 0.37 µM
[29]
  IC50: 0.499 µM and 0.5 µM
[30]
  IC50: 0.77 µM
[31]
  IC50: 2.2 µM
[32]
  IC50: > 30 µM
[33]
  IC50: 0.288 µM
[34]
  IC50: 1.44 µM
[35]
  IC50: 7.21 µM
